Experimental findings from paper PMC12668310, “High‐Throughput Synthesis and Screening of a Cyanimide Library Identifies Selective Inhibitors of ISG15‐Specific Protease mUSP18” (Angewandte Chemie (International Ed. in English), 2025) are described below.

Where two headings read alike, the source gives them in different places.

This test addresses T1, mUSP18 (Mus musculus, UniProt Q9WTV6).
T1 construct: (46-368); His-tag (N); made in house
T1 sequence (Q9WTV6 46-368): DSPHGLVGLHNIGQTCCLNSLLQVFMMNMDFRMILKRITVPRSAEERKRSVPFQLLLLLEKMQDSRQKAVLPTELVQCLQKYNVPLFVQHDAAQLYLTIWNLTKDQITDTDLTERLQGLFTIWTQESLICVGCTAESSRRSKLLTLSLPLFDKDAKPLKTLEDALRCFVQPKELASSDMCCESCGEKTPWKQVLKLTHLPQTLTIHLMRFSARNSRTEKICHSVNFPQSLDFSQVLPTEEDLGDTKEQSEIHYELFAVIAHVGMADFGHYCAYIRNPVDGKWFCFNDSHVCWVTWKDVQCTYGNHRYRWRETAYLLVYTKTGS
Nature of the test: High-throughput screening, ISG15ct-RhoMP, single dose 1.25 µM. The format is biochemical, murine.

The mark [1] stands for this setting: mUSP18 %inhibition, carboxylic acid (CA) building block alone, read-out: %inh CA only.
Setting [2] is: mUSP18 %inhibition, carboxylic acid (CA) with coupling reagents DIC/HOBT, read-out: %inh CA + DIC/HOBT.

Regarding `O=C(O)c1cc(C2CC2)n[nH]1` [CA293], the inhibition at 1.25 µM under setting [1] is 0.33% and the inhibition at 1.25 µM under setting [2] turned out to be 14.3%.
The matching figures for `O=C(O)c1cc(-c2ccncc2)on1` [CA294]: -3.88% and -0.96%.
As to `O=C(O)c1ccc(N2CCCC2)c(F)c1` [CA295], the inhibition at 1.25 µM runs as follows: under setting [1], -4.32%; under setting [2], 40.8%.
The matching figures for `O=C(O)Cc1ccc(OCCOc2ccccc2)cc1` [CA296]: -2.15% and 1.46%.
The matching figures for `Cc1cc(C(=O)O)c(C)n1-c1cccnc1` [CA297]: -2.57% and -1.91%.
In the case of `O=C(O)c1csc(-c2ccncc2)n1` [CA298], the inhibition at 1.25 µM is, setting by setting: under setting [1], -1.96%; under setting [2], -1.91%.
The like results for `O=C(O)C1CN(C(=O)OCc2ccccc2)CCO1` (centres unmarked) [CA300] were, in that order, -2.04% and 0.0181%.
On to `O=C(O)Cc1cnn(-c2ccccc2)n1` [CA301], for which the inhibition at 1.25 µM by setting is: under setting [1], -3.64%; under setting [2], 0.63%.
For `O=C(O)c1cccn1-c1c(Cl)cccc1Cl` [CA302], the inhibition at 1.25 µM runs as follows: under setting [1], 0.53%; under setting [2], 98.1%. In addition, the “inhibition of mUSP18 by individual CA's and coupling reagents” value (screened with and without DIC/HOBt) is “could inhibit mUSP18”.
With `O=C(O)c1cnn(-c2ccc(Br)cc2)c1` [CA303], the inhibition at 1.25 µM reads like this: under setting [1], -3.17%; under setting [2], 14.7%.
The like results for `Cn1cc(-c2ccc(C(=O)O)o2)cn1` [CA304] were, in that order, -4.51% and 6.42%.
Turning to `O=C(O)c1ccc(F)c(S(=O)(=O)N2CCC2)c1` [CA305], the inhibition at 1.25 µM is -6.19% under setting [1] and 9.63% under setting [2].
Take `CN1C(=O)C[C@@H](C(=O)O)[C@@H]1c1cccnc1` [CA306]: under “mUSP18 %inhibition, carboxylic acid (CA) building block alone”, the “%inh CA only” value was found to be 15.74%. Also, the “%inh CA + DIC/HOBT” value (mUSP18 %inhibition, carboxylic acid (CA) with coupling reagents DIC/HOBT) is given as -6.80%.
With `Cc1nc(COc2ccccc2C(=O)O)no1` [CA307], the inhibition at 1.25 µM is, setting by setting: under setting [1], 9.87%; under setting [2], -3.65%.
For `Cc1onc(-c2ccncc2)c1C(=O)O` [CA308], the inhibition at 1.25 µM is 7.23% under setting [1] and -3.66% under setting [2].
The like results for `O=C(O)c1cccc(OCCOc2ccccc2Cl)n1` [CA309] were, in that order, 8.2% and -0.34%.
For `O=C(O)CC1(n2cnnn2)CCOCC1` [CA310], the inhibition at 1.25 µM reads like this: under setting [1], 3.18%; under setting [2], -2.42%.
The matching figures for `O=C(O)c1sc(N2CCCC2)nc1Cl` [CA311]: 3.86% and -3.06%.
The matching figures for `COc1ccc(CN2CCC2C(=O)O)cc1` (centres unmarked) [CA312]: 3.67% and -3.27%.
As for `COCC1CCN(c2ccc(C(=O)O)cc2)C1` (centres unmarked) [CA313], the inhibition at 1.25 µM runs as follows: under setting [1], 2.9%; under setting [2], 43.3%.
For the compound `Cc1nn(-c2cccnc2)nc1C(=O)O` [CA314], the inhibition at 1.25 µM is, setting by setting: under setting [1], 5.77%; under setting [2], -5.31%.
The like results for `Cc1nn(-c2ccccn2)c(C)c1CC(=O)O` [CA315] were, in that order, 3.49% and -2.69%.
Take `O=C(O)c1ccnn1C1CCC1` [CA316]: the inhibition at 1.25 µM was 3.75% under setting [1] and -3.62% under setting [2].
The matching figures for `O=C(O)CC1(Cn2cnnn2)CCCCC1` [CA317]: 3.86% and -1.32%.
In the case of `O=C(O)c1cn(CC2CCOC2)nn1` (centres unmarked) [CA318], the inhibition at 1.25 µM reads like this: under setting [1], -2.05%; under setting [2], -0.23%.
With `O=C(O)c1ccn(-c2ccc(C(F)(F)F)cn2)n1` [CA319], the inhibition at 1.25 µM by setting is: under setting [1], -2.14%; under setting [2], -1.07%.
As to `O=C(O)c1sccc1S(=O)(=O)NCc1ccco1` [CA320], the inhibition at 1.25 µM under setting [1] was -2.92% and the inhibition at 1.25 µM under setting [2] amounted to 4.46%.
Regarding `O=C(O)c1cnn(Cn2cc(Cl)cn2)c1` [CA321], the inhibition at 1.25 µM under setting [1] was -3.47% and the inhibition at 1.25 µM under setting [2] was 1.28%.
The like results for `O=C(O)c1nc(OCC2CC2)ccc1Cl` [CA322] were, in that order, -0.54% and -0.53%.
The like results for `CC(C(=O)O)n1ccc(C2CC2)n1` (centres unmarked) [CA323] were, in that order, -0.32% and 0.72%.
As to `Cn1cc(S(=O)(=O)N2CCOCC2)cc1C(=O)O` [CA324], the inhibition at 1.25 µM runs as follows: under setting [1], -1.59%; under setting [2], 1.03%.
For `Cn1nc(CC(=O)O)cc1C1CC1` [CA325], the inhibition at 1.25 µM is, setting by setting: under setting [1], -0.57%; under setting [2], 0.73%.
With `COc1ccc(C(=O)O)cc1S(=O)(=O)NCCCN1CCOCC1` [CA326], the inhibition at 1.25 µM under setting [1] was -1.48% and the inhibition at 1.25 µM under setting [2] is -1.62%.
The matching figures for `Cc1sc(-n2cnnn2)c(C(=O)O)c1C` [CA327]: -5.75% and 4.6%.
The matching figures for `Cc1noc(-c2ccc(C(=O)O)cc2)n1` [CA328]: -3.57% and 6.75%.
The matching figures for `CCOc1oc(-c2ccco2)nc1C(=O)O` [CA329]: 14.4% and 1%.
As for `Cc1ccc(S(=O)(=O)NCCc2ccc(F)cc2)cc1C(=O)O` [CA330], the inhibition at 1.25 µM runs as follows: under setting [1], 11.3%; under setting [2], -0.35%.
The matching figures for `Cc1nc(-c2ccco2)ccc1C(=O)O` [CA331]: 7.93% and -2.82%.
The matching figures for `O=C(CC1(C(=O)O)CCCC1)N1CCOCC1` [CA332]: 2.56% and -3.79%.
The like results for `CN(Cc1ccccc1)C(=O)N1CCC(C(=O)O)CC1` [CA333] were, in that order, 1.66% and -0.9%.
On to `O=C(O)C1(NS(=O)(=O)C=Cc2ccccc2)CCCC1` [CA334], for which the inhibition at 1.25 µM is, setting by setting: under setting [1], 0.85%; under setting [2], 6.5%.
The like results for `O=C(O)C(Cc1ccccc1)N1CCCOC1=O` (centres unmarked) [CA335] were, in that order, 2.86% and -1.08%.
The matching figures for `O=C(O)c1ccc(N2CCCS2(=O)=O)cc1` [CA336]: 1.69% and -1.03%.
The matching figures for `Cc1ccc(CN2C(=O)CCC2C(=O)O)cc1` (centres unmarked) [CA337]: -0.24% and -1.16%.
For the compound `O=C(O)c1nc(C2CC2)ncc1Br` [CA338], the inhibition at 1.25 µM under setting [1] worked out at 7.6% and the inhibition at 1.25 µM under setting [2] was -0.51%.
Take `CN1C(=O)CCC(C(=O)O)C1c1cccs1` (centres unmarked) [CA339]: the inhibition at 1.25 µM by setting is: under setting [1], 2.79%; under setting [2], -5.82%.
The matching figures for `COc1ccc(CC(=O)O)cc1S(=O)(=O)N1CCOCC1` [CA340]: 3.33% and -0.36%.
Consider `O=C(O)c1ccc(-c2ccccn2)s1` [CA341], for which the inhibition at 1.25 µM is, setting by setting: under setting [1], 0.41%; under setting [2], 3.46%.
With `Cc1noc(C)c1S(=O)(=O)N1CCCC1C(=O)O` (centres unmarked) [CA342], the inhibition at 1.25 µM runs as follows: under setting [1], 2.95%; under setting [2], 1.55%.
As to `Cc1cc(C(=O)N(C)c2ccccc2C(=O)O)sc1C` [CA343], the inhibition at 1.25 µM is, setting by setting: under setting [1], 13.5%; under setting [2], 8.07%.
